{"source": "patent EP0551200A1", "about": "“Protein phosphatase inhibitors for use in therapy” (priority 1992, dated 1993)", "tested_on": "Egr-1 mRNA", "experiment": "Northern blot analysis of Egr-1 mRNA induction in quiescent primary human fibroblasts", "type": "cell-based", "procedure": "Quiescent human fibroblasts were incubated with TNF (500 units/ml) (a) or OA (500 nM) (b) for 0, 30, 60 min after which total cellular RNA was extracted. Blots of RNA from these cells were hybridized to radiolabeled (10⁶ cpm/ml) Egr-1 cDNA probe. c, the blot in b was stripped and reprobed with c-jun cDNA. Note: Egr-1 mRNA probe was not completely stripped from the blot. The autoradiograph of the blot is presented. d, regularly maintained cells were incubated wither with no additions (control, 0 time) or with OA for 1, 3, 5, 7 h and Northern analysis was carried out with an IL-6 cDNA probe (ATCC, Rockville, MD, US).\n10 µg of RNA was applied to each lane and subjected to Northern blot analysis using an Egr-1 specific cDNA probe [1.6 kb Bgl II fragment (Sukhatme et al, Cell 53, 37-48, 1988)]. The same blots were rehybridized with actin or GADPH cDNA for normalizing the amount of RNA loaded. The blots were dried and autoradiographed. • (A). Time course of okadaic acid-induced Egr-1 and c-jun messages in primary human fibroblasts. Quiescent human fibroblasts were induced with 1 µM of okadaic acid for the time periods indicated. […] Time course of okadaic acid-induced Egr-1 message in Balb/c 3T3 cells. Quiescent Balb/c 3T3 cells were induced with okadaic acid (0.5µM) for the times indicated. • (C). Concentration dependent induction of Egr-1 message by okadaic acid in Balb/c 3T3 cells. Quiescent Balb/c 3T3 cells were induced with the indicated concentrations of okadaic acid for 1 h. As controls, different concentrations of DMSO were included. These corresponded to the amounts present in 0.25 µM okadaic acid (0.025% dimethyl sulphoxide (DMSO)) 0.5 µM okadaic acid (0.05% DMSO) and 1 µM okadaic acid (0.1%). • (D). Concentration dependent and time course induction of Egr-1 message by calyculin A. Quiescent Balb/c 3T3 cells were induced with different concentrations of calyculin A for 1 h. Northern analysis of this dose-dependent induction by calyculin A is shown on the left panel of the figure. […] Northern analysis of this time course induction by calyculin A is shown in the right panel of the figure. The same blot was rehybridized with pCMV-fos (Curran et al, Oncogene 2, 79-84, 1987) and pCMV-jun (Rauscher et al, 1988) shown in the middle panel. The blot was dried and autoradiographed.\nCells were incubated with either 0.5 µM of okadaic acid or 10 µg/ml of cycloheximide as well as with 0.5 µM of okadaic acid and 10 µg/ml of cycloheximide for 1.5, 3 or 6 h. Cells were harvested, RNA isolated and subjected to Northern blot analysis. The blot was probed with Egr-1 or actin cDNA.\nQuiescent primary human fibroblasts were incubated with okadaic acid (OA) or TPA for 1 or 3 h. The concentrations of OA and TPA were 0.5 µM and 120 ng/ml, respectively. The concentration of 1-(5-isoquinolinylsulfonyl)-2-methylpiperazine dihydrochloride (H7) and N-(2-guanidinoethyl)-5-isoquinolinesulphonamide dihydrochloride (HA1004) used was 25 µM. The cells were pre-treated for 15 min with H7 or HA1004 before they were induced by OA or TPA for 1 or 3 h. Cells were harvested, RNA was isolated and subjected to Northern blot analysis. The blot was probed with Egr-1 or GADPH cDNA. • (B). As a positive control, primary human fibroblasts were treated with TPA (30 ng/ml) for 1 h (1st lane). The fibroblasts were also pre-treated with H7 (25 µM) or HA1004 (25 µM) for 15 min before treatment with TPA for 1 h (2nd and 3rd lanes respectively). […] The blot was probed with Egr-1 or actin cDNA. • (C). Quiescent Balb/c 3T3 cells were incubated with OA, TPA or dBt-cAMP for 1 h or pre-treated with H7 (25 µM) or HA1004 (25 µM) for 15 min and then incubated with each of the agonists for 1 h. Cells were harvested, RNA was isolated and subjected to Northern blot analysis. […]"}
{"compound": "C=C1[C@@H](O)[C@@H]2O[C@]3(CC[C@H](/C=C/[C@@H](C)[C@@H]4CC(C)=C[C@@]5(O[C@H](C[C@@](C)(O)C(=O)O)CC[C@H]5O)O4)O3)CC[C@H]2O[C@@H]1[C@@H](O)C[C@H](C)[C@H]1O[C@@]2(CCCCO2)CC[C@H]1C", "note": "[okadaic acid]", "values": [{"measurement": "time for which the Egr-1 mRNA level is maintained", "setting": "1 µM", "value": "up to 7 h"}, {"measurement": "time of maximal induction of Egr-1 mRNA", "setting": "1 µM", "value": "about 2 h"}, {"measurement": "time to induction of Egr-1 mRNA", "setting": "1 µM, Example 2", "value": "≤ 1", "unit": "h"}, {"measurement": "fold induction at 1 µM", "setting": "Homo sapiens, Fibroblast, read-out: Egr-1 mRNA level over control", "value": "30 to 40"}, {"measurement": "time to induction of Egr-1", "setting": "OA 500 nM, Example 1", "value": "≤ 30", "unit": "min"}]}
